{
  "source": "PubChem BioAssay AID1259407",
  "about": "(Chemical Carcinogenesis Research Information System (CCRIS), 2018)",
  "tested_on": "CCRIS mutagenicity, Ames/micronucleus/aberration tests",
  "assay": "CCRIS mutagenicity studies",
  "key": {"[1]": {"settings": "Test System: AMES SALMONELLA TYPHIMURIUM, Strain/Indicator: TA98, Metabolic Activation: NONE, Method: STANDARD PLATE"}, "[2]": {"settings": "Test System: AMES SALMONELLA TYPHIMURIUM, Strain/Indicator: TA98, Metabolic Activation: RAT, LIVER, S-9, AROCLOR 1254, Method: STANDARD PLATE"}, "[3]": {"settings": "Test System: AMES SALMONELLA TYPHIMURIUM, Strain/Indicator: TA100, Metabolic Activation: NONE, Method: STANDARD PLATE"}, "[4]": {"settings": "Test System: AMES SALMONELLA TYPHIMURIUM, Strain/Indicator: TA100, Metabolic Activation: RAT, LIVER, S-9, AROCLOR 1254, Method: STANDARD PLATE"}, "[5]": {"settings": "Test System: AMES SALMONELLA TYPHIMURIUM, Strain/Indicator: TA98, Metabolic Activation: RAT LIVER S-9, AROCLOR, Method: STANDARD PLATE"}, "[6]": {"settings": "Test System: AMES SALMONELLA TYPHIMURIUM, Strain/Indicator: TA100, Metabolic Activation: RAT LIVER S-9, AROCLOR, Method: STANDARD PLATE"}},
  "note": "Activity calls are given as the source filed them. How the calls were made is not given here.",
  "data": [
    {"smiles": "Nc1cccc2cnsc12", "values": [
      {"measurement": "mutagenic call", "setting": "[1]", "result": "active; positive"}
    ]},
    {"smiles": "O=[N+]([O-])c1ccc(NO)cc1", "values": [
      {"measurement": "mutagenic call", "setting": "Test System: AMES SALMONELLA TYPHIMURIUM, Strain/Indicator: TA98(NR), Metabolic Activation: NONE, Method: STANDARD PLATE", "result": "active; positive"},
      {"measurement": "mutagenic call", "setting": "Test System: AMES SALMONELLA TYPHIMURIUM, Strain/Indicator: TA98(NR), Metabolic Activation: RAT, LIVER, S-9, AROCLOR 1254, Method: STANDARD PLATE", "result": "inactive; negative"},
      {"measurement": "mutagenic call", "setting": "[1]", "result": "active; positive"},
      {"measurement": "mutagenic call", "setting": "[2]", "result": "active; positive"},
      {"measurement": "mutagenic call", "setting": "[3]", "result": "active; positive"},
      {"measurement": "mutagenic call", "setting": "Test System: AMES SALMONELLA TYPHIMURIUM, Strain/Indicator: TA1535, Metabolic Activation: NONE, Method: STANDARD PLATE", "result": "active; positive"},
      {"measurement": "mutagenic call", "setting": "Test System: AMES SALMONELLA TYPHIMURIUM, Strain/Indicator: TA1538(NR), Metabolic Activation: NONE, Method: STANDARD PLATE", "result": "active; positive"},
      {"measurement": "mutagenic call", "setting": "Test System: AMES SALMONELLA TYPHIMURIUM, Strain/Indicator: TA1538(NR), Metabolic Activation: RAT, LIVER, S-9, AROCLOR 1254, Method: STANDARD PLATE", "result": "active; positive"},
      {"measurement": "mutagenic call", "setting": "Test System: AMES SALMONELLA TYPHIMURIUM, Strain/Indicator: TA1538, Metabolic Activation: NONE, Method: STANDARD PLATE", "result": "active; positive"},
      {"measurement": "mutagenic call", "setting": "Test System: AMES SALMONELLA TYPHIMURIUM, Strain/Indicator: TA1538, Metabolic Activation: RAT, LIVER, S-9, AROCLOR 1254, Method: STANDARD PLATE", "result": "active; positive"},
      {"measurement": "mutagenic call", "setting": "Test System: E. COLI, Strain/Indicator: WP2 UVRA(P), Metabolic Activation: NONE, Method: STANDARD PLATE", "result": "active; positive"},
      {"measurement": "mutagenic call", "setting": "Test System: E. COLI, Strain/Indicator: WP2 UVRA, Metabolic Activation: NONE, Method: FLUCTUATION TEST", "result": "active; positive"},
      {"measurement": "mutagenic call", "setting": "Test System: E. COLI, Strain/Indicator: WP2 UVRA, Metabolic Activation: NONE, Method: STANDARD PLATE", "result": "inactive; negative"}
    ]},
    {"smiles": "O[C@H]1c2ccccc2-c2cc3ccc4ccccc4c3cc2[C@@H]1O", "values": [
      {"measurement": "mutagenic call", "setting": "[4]", "result": "active; positive"}
    ]},
    {"smiles": "CCCCc1c(N)ccc2ccccc12", "values": [
      {"measurement": "mutagenic call", "setting": "[1]", "result": "inactive; negative"},
      {"measurement": "mutagenic call", "setting": "[5]", "result": "active; positive"},
      {"measurement": "mutagenic call", "setting": "[3]", "result": "inactive; negative"},
      {"measurement": "mutagenic call", "setting": "[6]", "result": "active; positive"}
    ]},
    {"smiles": "[As]", "values": [
      {"measurement": "mutagenic call", "setting": "End Point: IN VIVO CHROMOSOMAL ABERRATIONS, Test System: BLOOD LYMPHOCYTES, Species: HUMAN, Strain/Sex: MALE, FEMALE, Route: ORAL, DRINKING WATER", "result": "active; positive (structural changes) ; all subjects showed arsenic-related skin lesions"},
      {"measurement": "mutagenic call", "setting": "End Point: IN VIVO CHROMOSOMAL ABERRATIONS, Test System: PERIPHERAL BLOOD LYMPHOCYTES, Species: HUMAN, Strain/Sex: MALE, FEMALE, Route: DRINKING WATER", "result": "active; positive; exact form of arsenic not given: significant increase in exposed indiv"},
      {"measurement": "mutagenic call", "setting": "End Point: IN VIVO MICRONUCLEUS, Test System: PERIPHERAL BLOOD LYMPHOCYTES, Species: HUMAN, Strain/Sex: MALE, FEMALE, Route: ORAL, DRINKING WATER", "result": "active; positive; environmental exposure from drinking water"},
      {"measurement": "mutagenic call", "setting": "End Point: In vivo micronucleus, Test System: Peripheral lymphocytes, Species: Human, Strain/Sex: Male, Route: Inhalation (Occupational)", "result": "inactive; negative"}
    ]},
    {"smiles": "O=C(O)CCC(=O)N(O)c1ccc(Cl)cc1", "values": [
      {"measurement": "mutagenic call", "setting": "[1]", "result": "inactive; negative"},
      {"measurement": "mutagenic call", "setting": "[2]", "result": "active; positive"},
      {"measurement": "mutagenic call", "setting": "[3]", "result": "inactive; negative"},
      {"measurement": "mutagenic call", "setting": "[4]", "result": "active; positive"}
    ]},
    {"smiles": "CCc1c(N)ccc2ccccc12", "values": [
      {"measurement": "mutagenic call", "setting": "[1]", "result": "inactive; negative"},
      {"measurement": "mutagenic call", "setting": "[5]", "result": "active; positive"},
      {"measurement": "mutagenic call", "setting": "[3]", "result": "inactive; negative"},
      {"measurement": "mutagenic call", "setting": "[6]", "result": "active; positive"}
    ]}
  ]
}
